Results from the supplement of paper PMC11451515.

System: NOMO1
Test: cell viability relative to DMSO control; higher = less cytotoxic
Conditions: 48 h
Summary of the method: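 Viability, reported as a per-plate percentage of DMSO wells with cell-free wells as background, came from CellTiter-Glo One luminescence. Reading took place after 48 h at 37°C. Before that, NOMO1 or SEM (500 cells/well) or P12-Ichikawa (1000 cells/well) leukemia cells, adapted for at least four passages in each medium, were seeded in 1536-well plates (5 μl) and pin-dosed with library compounds in DMSO, 47 μM to 0.79 nM over 11 threefold points.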

[1] = HPLM + 10% dialyzed FBS, 0.000781 µM
[2] = HPLM + 10% dialyzed FBS, 0.00234 µM
[3] = HPLM + 10% dialyzed FBS, 0.00702 µM
[4] = HPLM + 10% dialyzed FBS, 0.0211 µM
[5] = HPLM + 10% dialyzed FBS, 0.0632 µM
[6] = HPLM + 10% dialyzed FBS, 0.19 µM
[7] = HPLM + 10% dialyzed FBS, 0.569 µM
[8] = HPLM + 10% dialyzed FBS, 1.71 µM
[9] = HPLM + 10% dialyzed FBS, 5.12 µM
[10] = HPLM + 10% dialyzed FBS, 15.4 µM
[11] = HPLM + 10% dialyzed FBS, 46.1 µM
[12] = RPMI 5 mM glucose + 10% FBS, 0.000781 µM
[13] = RPMI 5 mM glucose + 10% FBS, 0.00234 µM
[14] = RPMI 5 mM glucose + 10% FBS, 0.00702 µM
[15] = RPMI 5 mM glucose + 10% FBS, 0.0211 µM
[16] = RPMI 5 mM glucose + 10% FBS, 0.0632 µM
[17] = RPMI 5 mM glucose + 10% FBS, 0.19 µM
[18] = RPMI 5 mM glucose + 10% FBS, 0.569 µM
[19] = RPMI 5 mM glucose + 10% FBS, 1.71 µM
[20] = RPMI 5 mM glucose + 10% FBS, 5.12 µM
[21] = RPMI 5 mM glucose + 10% FBS, 15.4 µM
[22] = RPMI 5 mM glucose + 10% FBS, 46.1 µM
[23] = RPMI 5 mM glucose + 10% dialyzed FBS, 0.000781 µM
[24] = RPMI 5 mM glucose + 10% dialyzed FBS, 0.00234 µM
[25] = RPMI 5 mM glucose + 10% dialyzed FBS, 0.00702 µM
[26] = RPMI 5 mM glucose + 10% dialyzed FBS, 0.0211 µM
[27] = RPMI 5 mM glucose + 10% dialyzed FBS, 0.0632 µM
[28] = RPMI 5 mM glucose + 10% dialyzed FBS, 0.19 µM
[29] = RPMI 5 mM glucose + 10% dialyzed FBS, 0.569 µM
[30] = RPMI 5 mM glucose + 10% dialyzed FBS, 1.71 µM
[31] = RPMI 5 mM glucose + 10% dialyzed FBS, 5.12 µM
[32] = RPMI 5 mM glucose + 10% dialyzed FBS, 15.4 µM
[33] = RPMI 5 mM glucose + 10% dialyzed FBS, 46.1 µM

Row | SMILES | cell viability [1] [%] | cell viability [2] [%] | cell viability [3] [%] | cell viability [4] [%] | cell viability [5] [%] | cell viability [6] [%] | cell viability [7] [%] | cell viability [8] [%] | cell viability [9] [%] | cell viability [10] [%] | cell viability [11] [%] | cell viability [12] [%] | cell viability [13] [%] | cell viability [14] [%] | cell viability [15] [%] | cell viability [16] [%] | cell viability [17] [%] | cell viability [18] [%] | cell viability [19] [%] | cell viability [20] [%] | cell viability [21] [%] | cell viability [22] [%] | cell viability [23] [%] | cell viability [24] [%] | cell viability [25] [%] | cell viability [26] [%] | cell viability [27] [%] | cell viability [28] [%] | cell viability [29] [%] | cell viability [30] [%] | cell viability [31] [%] | cell viability [32] [%] | cell viability [33] [%]
1 | CN1CCN(CC1)C2=CC3=C([NH]C(=N3)C/4=C(\N)C5=C(F)C=CC=C5NC4=O)C=C2 | 104 | 99.7 | 98.5 | 97.4 | 96.3 | 102 | 97.2 | 93.9 | 60.8 | 49.7 | 51.1 | 101 | 107 | 96.7 | 107 | 111 | 109 | 107 | 104 | 87.9 | 68.3 | 58.6 | 92.1 | 99.9 | 115 | 96.1 | 99 | 102 | 100 | 92.3 | 79.7 | 63.1 | 53.4
2 | c1coc(CNc2ncnc3nc[nH]c23)c1 | 120 | 126 | 123 | 133 | 129 | 136 | 117 | 118 | 118 | 108 | 97.3 | 125 | 131 | 124 | 113 | 116 | 119 | 140 | 132 | 118 | 119 | 108 | 124 | 122 | 125 | 124 | 128 | 121 | 121 | 112 | 107 | 94.1 | 88.5
3 | CCn1c(C(=O)N(C2CC2)C2CC2)cc2c3c(ncn3C)c(Nc3cc(C)n(C)n3)nc21 | 90.4 | 113 | 106 | 114 | 122 | 115 | 113 | 105 | 108 | 119 | 88.5 | 86.7 | 100 | 93.9 | 118 | 117 | 103 | 114 | 102 | 102 | 111 | 84.4 | 84.1 | 104 | 105 | 94.7 | 116 | 111 | 115 | 112 | 110 | 116 | 98.6
4 | CCOC(=O)c1c(CSc2ccccc2)n(C)c2cc(Br)c(O)c(CN(C)C)c12 | 129 | 121 | 114 | 133 | 127 | 128 | 130 | 120 | 128 | 120 | 104 | – | – | – | – | – | – | – | – | – | – | – | 119 | 119 | 124 | 129 | 114 | 124 | 124 | 129 | 108 | 92.8 | 69.1
5 | NC(=O)N1CCC(CC(=O)N2CCC([C@H]3c4ncc(Br)cc4CCc4cc(Cl)cc(Br)c43)CC2)CC1 | 113 | 109 | 126 | 118 | 117 | 110 | 114 | 122 | 90 | 90 | 53.4 | 107 | 112 | 109 | 98.5 | 104 | 103 | 99.2 | 101 | 86.2 | 80.2 | 54.1 | 109 | 113 | 123 | 112 | 118 | 112 | 94 | 104 | 95.7 | 87.6 | 69.4
6 | OC[C@H]1OC(O)C[C@@H](O)[C@@H]1O (stereo partly drawn) | 110 | 113 | 127 | 125 | 125 | 128 | 121 | 135 | 109 | 122 | 52.4 | – | – | – | – | – | – | – | – | – | – | – | 109 | 118 | 128 | 125 | 137 | 123 | 120 | 142 | 128 | 129 | 68
7 | N#CC1(c2cccc(C(=O)Nc3cc(Oc4ccc5nc(NC(=O)C6CC6)sc5n4)ccc3F)c2Cl)CC1 | 105 | 121 | 114 | 113 | 119 | 93.8 | 91 | 56.6 | 39.2 | 18.2 | 18.2 | 115 | 113 | 107 | 100 | 103 | 105 | 104 | 76.7 | 48.8 | 10.7 | 10.6 | 118 | 123 | 96.5 | 98.2 | 98.7 | 90.6 | 72.9 | 70.1 | 53.9 | 16.9 | 15.6
8 | CC(=O)OCC(=O)[C@@]1(O)CC[C@H]2[C@@H]3CCC/4=C/C(=O)/C=C\[C@]4(C)[C@H]3[C@@H](O)C[C@]12C | – | – | – | – | – | – | – | – | – | – | – | 131 | 119 | 121 | 119 | 114 | 119 | 120 | 112 | 119 | 106 | 115 | – | – | – | – | – | – | – | – | – | – | –
9 | COCC(=O)NC/C=C/c1ccc2ncnc(Nc3ccc(Oc4ccc(C)nc4)c(C)c3)c2c1 | 84.6 | 89.4 | 109 | 90.8 | 92.1 | 57.3 | 65.8 | 52.9 | 37 | 42.4 | 34.2 | 94.2 | 96.4 | 107 | 95 | 90.6 | 81.3 | 78 | 49.7 | 60.2 | 50.1 | 52.8 | 87.7 | 90.6 | 93.9 | 99.8 | 97.4 | 92.2 | 78.4 | 71.2 | 57.6 | 66.8 | 41
